Experiments:
Type in all cases: cell-based
[1] = target: T1, human TLR7 (Homo sapiens, UniProt Q9NYK1); experiment: TLR7 inhibition reporter assay (HEK-Blue cells, SEAP reporter, gardiquimod stimulation); settings: HEK-Blue cells overexpressing human TLR7, SEAP reporter, gardiquimod 7.5 μM; read-out: TLR7 IC50
T1 construct: host or cells: HEK-Blue cells
T1 sequence (Q9NYK1 27-1049): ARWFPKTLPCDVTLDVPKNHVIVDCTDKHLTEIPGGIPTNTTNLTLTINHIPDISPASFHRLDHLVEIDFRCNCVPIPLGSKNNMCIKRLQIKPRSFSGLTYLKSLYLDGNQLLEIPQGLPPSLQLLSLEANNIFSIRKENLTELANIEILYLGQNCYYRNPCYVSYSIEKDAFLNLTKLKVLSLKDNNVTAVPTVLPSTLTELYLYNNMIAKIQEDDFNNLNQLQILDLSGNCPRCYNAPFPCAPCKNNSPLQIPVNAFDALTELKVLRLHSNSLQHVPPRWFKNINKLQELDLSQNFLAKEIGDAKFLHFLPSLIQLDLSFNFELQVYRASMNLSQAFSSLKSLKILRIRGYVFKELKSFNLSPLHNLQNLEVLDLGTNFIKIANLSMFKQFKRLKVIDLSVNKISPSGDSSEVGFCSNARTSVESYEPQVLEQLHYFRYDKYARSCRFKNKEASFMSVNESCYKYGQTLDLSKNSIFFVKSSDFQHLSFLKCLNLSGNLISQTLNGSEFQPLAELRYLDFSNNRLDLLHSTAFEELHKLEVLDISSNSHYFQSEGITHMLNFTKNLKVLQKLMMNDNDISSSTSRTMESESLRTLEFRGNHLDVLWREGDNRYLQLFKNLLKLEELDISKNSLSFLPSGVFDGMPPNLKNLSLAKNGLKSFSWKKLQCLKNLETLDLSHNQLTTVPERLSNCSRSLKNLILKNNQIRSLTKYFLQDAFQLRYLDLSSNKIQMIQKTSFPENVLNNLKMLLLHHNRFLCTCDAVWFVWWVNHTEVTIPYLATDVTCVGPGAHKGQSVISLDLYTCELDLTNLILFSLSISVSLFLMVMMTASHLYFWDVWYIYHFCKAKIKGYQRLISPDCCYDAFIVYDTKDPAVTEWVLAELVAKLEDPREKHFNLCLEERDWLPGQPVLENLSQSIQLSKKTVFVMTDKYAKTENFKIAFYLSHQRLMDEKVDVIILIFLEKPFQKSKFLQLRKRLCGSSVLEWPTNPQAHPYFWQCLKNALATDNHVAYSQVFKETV
Method in brief: (§1)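 HEK-Blue cells overexpressing human TLR7, TLR8 or TLR9 carry a SEAP reporter driven by NF-κB/AP-1 sites. Compounds (0.05 nM–50 μM) were preincubated 30 min at room temperature, then cells were stimulated with gardiquimod 7.5 μM (TLR7), R848 15.9 μM (TLR8) or ODN2006 5 nM (TLR9) for 22 h at 37 °C.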

[2] = target: T2, human TLR8 (Homo sapiens, UniProt Q9NR97); experiment: TLR8 inhibition reporter assay (HEK-Blue cells, SEAP reporter, R848 stimulation); settings: HEK-Blue cells overexpressing human TLR8, SEAP reporter, R848 15.9 μM; read-out: TLR8 IC50
T2 construct: host or cells: HEK-Blue cells
T2 sequence (Q9NR97 27-1041): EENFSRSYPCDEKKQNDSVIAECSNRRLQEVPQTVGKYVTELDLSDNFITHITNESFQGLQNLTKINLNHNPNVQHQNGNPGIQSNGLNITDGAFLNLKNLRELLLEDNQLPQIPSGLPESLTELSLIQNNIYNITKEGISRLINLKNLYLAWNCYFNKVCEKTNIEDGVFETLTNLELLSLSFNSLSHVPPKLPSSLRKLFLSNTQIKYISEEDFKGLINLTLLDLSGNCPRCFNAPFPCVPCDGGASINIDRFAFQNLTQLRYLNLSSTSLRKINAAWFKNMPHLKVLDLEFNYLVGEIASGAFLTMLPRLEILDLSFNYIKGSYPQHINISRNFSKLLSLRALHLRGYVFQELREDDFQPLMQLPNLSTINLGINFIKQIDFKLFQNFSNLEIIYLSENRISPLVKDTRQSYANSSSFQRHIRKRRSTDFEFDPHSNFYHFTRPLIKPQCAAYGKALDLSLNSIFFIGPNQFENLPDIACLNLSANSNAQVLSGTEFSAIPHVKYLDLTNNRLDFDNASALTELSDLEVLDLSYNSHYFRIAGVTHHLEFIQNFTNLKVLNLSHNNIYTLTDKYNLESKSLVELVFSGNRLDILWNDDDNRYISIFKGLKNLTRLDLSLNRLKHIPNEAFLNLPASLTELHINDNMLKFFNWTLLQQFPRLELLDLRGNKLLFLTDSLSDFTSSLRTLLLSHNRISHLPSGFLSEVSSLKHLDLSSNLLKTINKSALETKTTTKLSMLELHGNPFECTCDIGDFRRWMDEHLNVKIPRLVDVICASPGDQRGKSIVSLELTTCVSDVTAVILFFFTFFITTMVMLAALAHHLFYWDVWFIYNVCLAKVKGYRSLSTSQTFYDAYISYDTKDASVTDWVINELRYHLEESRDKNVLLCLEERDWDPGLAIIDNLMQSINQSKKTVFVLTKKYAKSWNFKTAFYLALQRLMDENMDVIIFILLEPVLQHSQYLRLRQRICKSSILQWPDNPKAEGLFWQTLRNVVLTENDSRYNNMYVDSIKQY
Method in brief: as §1

[3] = target: T3, human TLR9 (Homo sapiens, UniProt Q9NR96); experiment: TLR9 inhibition reporter assay (HEK-Blue cells, SEAP reporter, ODN2006 stimulation); settings: HEK-Blue cells overexpressing human TLR9, SEAP reporter, ODN2006 5 nM
T3 construct: host or cells: HEK-Blue cells
T3 sequence (Q9NR96 26-1032): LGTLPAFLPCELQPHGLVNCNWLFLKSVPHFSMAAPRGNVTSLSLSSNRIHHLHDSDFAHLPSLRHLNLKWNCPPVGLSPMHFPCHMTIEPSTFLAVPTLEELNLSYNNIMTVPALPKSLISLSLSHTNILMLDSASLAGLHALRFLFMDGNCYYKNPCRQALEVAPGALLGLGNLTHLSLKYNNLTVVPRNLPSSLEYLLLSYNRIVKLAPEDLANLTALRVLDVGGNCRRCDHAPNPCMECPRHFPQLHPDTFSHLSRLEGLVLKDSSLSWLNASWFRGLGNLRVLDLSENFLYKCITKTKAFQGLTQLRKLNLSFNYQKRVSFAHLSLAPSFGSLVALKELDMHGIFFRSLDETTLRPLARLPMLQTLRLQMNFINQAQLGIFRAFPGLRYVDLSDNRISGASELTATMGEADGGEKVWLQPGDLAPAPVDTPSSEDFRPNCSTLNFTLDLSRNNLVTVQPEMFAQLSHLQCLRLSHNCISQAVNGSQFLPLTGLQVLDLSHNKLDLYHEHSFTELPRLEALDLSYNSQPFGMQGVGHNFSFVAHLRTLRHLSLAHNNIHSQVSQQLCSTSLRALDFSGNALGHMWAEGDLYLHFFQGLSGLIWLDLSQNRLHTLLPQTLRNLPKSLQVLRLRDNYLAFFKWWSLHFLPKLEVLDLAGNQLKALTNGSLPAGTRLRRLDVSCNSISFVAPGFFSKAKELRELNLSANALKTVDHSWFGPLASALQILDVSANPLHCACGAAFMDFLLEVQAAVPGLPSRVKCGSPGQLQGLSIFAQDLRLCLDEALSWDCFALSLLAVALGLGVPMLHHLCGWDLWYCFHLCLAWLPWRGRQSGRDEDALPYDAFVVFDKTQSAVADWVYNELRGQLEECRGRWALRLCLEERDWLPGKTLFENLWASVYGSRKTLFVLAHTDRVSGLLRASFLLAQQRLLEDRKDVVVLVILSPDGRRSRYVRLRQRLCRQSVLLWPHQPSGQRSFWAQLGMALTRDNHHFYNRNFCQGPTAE
Method in brief: as §1

Row | SMILES | IC50 [1] | IC50 [2] | IC50 [3]
1 | COc1cc(-c2[nH]c3sc(C4CCNCC4)nc3c2C(C)C)cn2ncnc12 [Example 1, 6-isopropyl-5-(8-methoxy-[1,2,4]triazolo[1,5-a]pyridin-6-yl)-2-(piperidin-4-yl)-4H-pyrrolo[3,2-d]thiazole] | 2.01 nM | 8.14 nM | 760 nM
2 | Cc1cc(-c2[nH]c3sc(C4CCNCC4)nc3c2C(C)C)cn2ncnc12 [Example 2, 6-isopropyl-5-(8-methyl-[1,2,4]triazolo[1,5-a]pyridin-6-yl)-2-(piperidin-4-yl)-4H-pyrrolo[3,2-d]thiazole] | 2.27 nM | 5.82 nM | 6560 nM
3 | CC(C)c1c(-c2cn(C)c3ncccc23)[nH]c2sc(C3CCNCC3)nc12 [Example 3, 6-isopropyl-5-(1-methyl-1H-pyrrolo[2,3-b]pyridin-3-yl)-2-(piperidin-4-yl)-4H-pyrrolo[3,2-d]thiazole] | 1.84 nM | 3.05 nM | 18500 nM
4 | Cc1cc(-c2[nH]c3sc(C4CCNCC4)nc3c2C(C)C)cc(C)n1 [Example 4, 5-(2,6-dimethylpyridin-4-yl)-6-isopropyl-2-(piperidin-4-yl)-4H-pyrrolo[3,2-d]thiazole] | 5.52 nM | 33.9 nM | 287 nM
5 | COc1cc(-c2[nH]c3sc(C4CCN(C(=O)CN(C)C)CC4)nc3c2C(C)C)cn2ncnc12 [Example 6, 2-(dimethylamino)-1-(4-(6-isopropyl-5-(8-methoxy-[1,2,4]triazolo[1,5-a]pyridin-6-yl)-4H-pyrrolo[3,2-d]thiazol-2-yl)piperidin-1-yl)ethan-1-one] | 2.05 nM | 20.9 nM | 1100 nM
6 | COc1cc(-c2[nH]c3sc(C4CCN(CC(=O)N(C)C)CC4)nc3c2C(C)C)cn2ncnc12 [Example 7, 2-(4-(6-isopropyl-5-(8-methoxy-[1,2,4]triazolo[1,5-a]pyridin-6-yl)-4H-pyrrolo[3,2-d]thiazol-2-yl)piperidin-1-yl)-N,N-dimethylacetamide] | 7.8 nM | 6.59 nM | 5470 nM
7 | CNC(=O)CN1CCC(c2nc3c(C(C)C)c(-c4cc(OC)c5ncnn5c4)[nH]c3s2)CC1 [Example 8, 2-(4-(6-isopropyl-5-(8-methoxy-[1,2,4]triazolo[1,5-a]pyridin-6-yl)-4H-pyrrolo[3,2-d]thiazol-2-yl)piperidin-1-yl)-N-methylacetamide] | 2.47 nM | 5.42 nM | 30900 nM
8 | COc1cc(-c2[nH]c3sc(C4CCN(C(C)C)CC4)nc3c2C(C)C)cn2ncnc12 [Example 10, 6-isopropyl-2-(1-isopropylpiperidin-4-yl)-5-(8-methoxy-[1,2,4]triazolo[1,5-a]pyridin-6-yl)-4H-pyrrolo[3,2-d]thiazole] | 1.37 nM | 1.9 nM | 1330 nM
9 | COc1cc(-c2[nH]c3sc(C4CCN(C5COC5)CC4)nc3c2C(C)C)cn2ncnc12 [Example 11, 6-isopropyl-5-(8-methoxy-[1,2,4]triazolo[1,5-a]pyridin-6-yl)-2-(1-(oxetan-3-yl)piperidin-4-yl)-4H-pyrrolo[3,2-d]thiazole] | 3.78 nM | 9.31 nM | 18500 nM

The remaining lines, values ahead:

Row | IC50 [1] | IC50 [2] | IC50 [3] | SMILES
10 | 975 nM | > 3130 nM | > 50000 nM | COc1cc(-c2[nH]c3sc(C4CCC(N5CCNC(=O)C5)CC4)nc3c2C)cn2ncnc12 (single isomer, unassigned) [Example 276, 4-(4-(5-(8-methoxy-[1,2,4]triazolo[1,5-a]pyridin-6-yl)-6-methyl-4H-pyrrolo[3,2-d]thiazol-2-yl)cyclohexyl)piperazin-2-one]
11 | 10.5 nM | 28.1 nM | 5460 nM | Cc1c(-c2[nH]c3sc(C(=O)NC4CCC(N(C)C)CC4)nc3c2C(C)C)cn2ncnc2c1C (single isomer, unassigned) [Example 368, 5-(7,8-dimethyl-[1,2,4]triazolo[1,5-a]pyridin-6-yl)-N-(4-(dimethylamino)cyclohexyl)-6-isopropyl-4H-pyrrolo[3,2-d]thiazole-2-carboxamide]
12 | 18 nM | 33 nM | 46900 nM | Cc1c(-c2[nH]c3sc(C(=O)NC4CCC(N(C)C)CC4)nc3c2C(C)C)cn2ncnc2c1C (single isomer, unassigned) [Example 369, 5-(7,8-dimethyl-[1,2,4]triazolo[1,5-a]pyridin-6-yl)-N-(4-(dimethylamino)cyclohexyl)-6-isopropyl-4H-pyrrolo[3,2-d]thiazole-2-carboxamide]
13 | 1.59 nM | 0.86 nM | 2150 nM | COc1cc(-c2[nH]c3sc(C4CCN(C5CCOCC5)CC4)nc3c2C(C)C)cn2ncnc12 [Example 12, 6-isopropyl-5-(8-methoxy-[1,2,4]triazolo[1,5-a]pyridin-6-yl)-2-(1-(tetrahydro-2H-pyran-4-yl)piperidin-4-yl)-4H-pyrrolo[3,2-d]thiazole]

Reference: US20230139171A1 (SITA Information Networking Computing UK Limited, priority 2019, published 2023)
